This note sets out measurements from ChEMBL document CHEMBL4483862, “Open-source discovery of chemical leads for next-generation chemoprotective antimalarials” (2018).

The assay relates to Plasmodium berghei. Put plainly: Luciferase/luciferin-expressing antifolate-resistant parasites were used to infect a culture of HepG2 cells that were pre-incubated with compounds. Infected hepatocytes emit light due to the luciferase reaction. Assay results are presented as the percent inhibition of light emission compared to control. […]. It is filed as functional. The settings on record: sporozoite; for IC90: read-out: LUCIFERASE INFECTION ASSAY - IC90.

Each structure is given as a SMILES string.

For the molecule `COc1ccc(OS(=O)(=O)c2sc(Br)cc2Br)cc1`, the IC90 – broadly, the concentration needed for an effect of 90% – turned out to be 3.26 µM. The IC50 (commonly the concentration that gives 50% inhibition) (HEPG2TOX_HILL_SLOPE 3.4, HEPG2TOX_R_SQUARED 0.9, PBLUC_HILL_SLOPE 10.6, PBLUC_R_SQUARED 0.653, read-out: LUCIFERASE INFECTION ASSAY - IC50) turned out to be 2.64 µM.

Consider `O=C(N/N=C(\Cc1ncc[nH]1)c1ccccc1)c1ccncc1`, for which the IC90 is 3.77 µM. Further, the IC50 (HEPG2TOX_HILL_SLOPE 3.38, HEPG2TOX_R_SQUARED 0.998, PBLUC_HILL_SLOPE 17.1, PBLUC_R_SQUARED 0.54, read-out: LUCIFERASE INFECTION ASSAY - IC50) is 3.31 µM.

Take `CCCOc1ccc(/C=N/NC(=S)Nc2ccccc2[N+](=O)[O-])c(O)c1`: the IC90 came out at 1 µM. Moreover, the IC50 (HEPG2TOX_HILL_SLOPE 3.34, HEPG2TOX_R_SQUARED 0.913, PBLUC_HILL_SLOPE 0.962, PBLUC_R_SQUARED 0.919, read-out: LUCIFERASE INFECTION ASSAY - IC50) was 0.102 µM.

In the case of `Cc1ccc2[nH]c3c(c2c1)CCCC3N` (stereo unspecified), the IC90 was 10.5 µM. Where the note is “HEPG2TOX_HILL_SLOPE 3.36, HEPG2TOX_R_SQUARED 0.51, PBLUC_HILL_SLOPE 2.39, PBLUC_R_SQUARED 0.343, read-out: LUCIFERASE INFECTION ASSAY - IC50”, the IC50 stood at 4.17 µM.

Take `NC(=O)c1cccc(-c2ccc3ncc(-c4cccc(O)c4)n3n2)c1`: the concentration for an effect of 90% (IC90) was found to be 7.72 µM. Also, the IC50 (HEPG2TOX_HILL_SLOPE 3.39, HEPG2TOX_R_SQUARED 0.986, PBLUC_HILL_SLOPE 6.74, PBLUC_R_SQUARED 0.592, read-out: LUCIFERASE INFECTION ASSAY - IC50) turned out to be 5.57 µM.

For `CCCn1c(C)cc(C(=O)CN(C)S(=O)(=O)c2ccc(Cl)cc2)c1C`, the IC90 was more than 10 µM. Besides, the IC50 (HEPG2TOX_HILL_SLOPE 3.32, HEPG2TOX_R_SQUARED 0.751, PBLUC_HILL_SLOPE 15.5, PBLUC_R_SQUARED 0.301, read-out: LUCIFERASE INFECTION ASSAY - IC50) was determined as 9.26 µM.

For the molecule `Cc1csc(NC(=O)Nc2cc(C(F)(F)F)cc(C(F)(F)F)c2)c1Cl`, the IC90 was determined as 2.61 µM. Moreover, the half-inhibitory concentration (IC50) (HEPG2TOX_HILL_SLOPE 3.35, HEPG2TOX_R_SQUARED 0.976, PBLUC_HILL_SLOPE 39.1, PBLUC_R_SQUARED 0.116, read-out: LUCIFERASE INFECTION ASSAY - IC50) was found to be 2.47 µM.

On to `COc1cc(-c2nc3ccc(NC(=O)Nc4cccc(C(C)=O)c4)cn3n2)cc(OC)c1OC`, for which the 90% effect concentration (IC90) is 1.53 µM. Moreover, the IC50 (HEPG2TOX_HILL_SLOPE 3.38, HEPG2TOX_R_SQUARED 0.754, PBLUC_HILL_SLOPE 9.64, PBLUC_R_SQUARED 0.711, read-out: LUCIFERASE INFECTION ASSAY - IC50) is 1.21 µM.

Regarding `CC(C)Oc1cccc(Nc2ncc(C(=O)c3cccc(-c4ccncc4)c3)[nH]2)c1`, the IC90 stood at 3.9 µM. Also, the IC50 (HEPG2TOX_HILL_SLOPE 3.28, HEPG2TOX_R_SQUARED 0.825, PBLUC_HILL_SLOPE 4.08, PBLUC_R_SQUARED 0.607, read-out: LUCIFERASE INFECTION ASSAY - IC50) came to 2.27 µM.

With `CN(Cc1ccc2c(c1)OCO2)c1cnn(-c2nc3ccccc3[nH]2)c(=O)c1Cl`, the IC90 stood at 3.94 µM. In addition, for the setting “HEPG2TOX_HILL_SLOPE 3.37, 11.7, HEPG2TOX_R_SQUARED 0.995, 0.503, PBLUC_HILL_SLOPE 3.37, 1.13, PBLUC_R_SQUARED 0.633, 0.779, read-out: LUCIFERASE INFECTION ASSAY - IC50”, the IC50 turned out to be 0.948 µM.

On to `CCCCCCCCCCOCC[N+]1(C)CCOCC1`, for which the IC90 worked out at 7.47 µM. For the same molecule, the IC50 (HEPG2TOX_HILL_SLOPE 3.29, HEPG2TOX_R_SQUARED 0.591, PBLUC_HILL_SLOPE 1.92, PBLUC_R_SQUARED 0.78, read-out: LUCIFERASE INFECTION ASSAY - IC50) was found to be 2.38 µM.

With `CCN(c1ccccc1)S(=O)(=O)c1cc(NC(=O)NC23CC4(C)CC(C)(CC(C)(C4)C2)C3)ccc1Cl`, the IC90 was determined as 6.3 µM. Also, the IC50 (HEPG2TOX_HILL_SLOPE 3.39, HEPG2TOX_R_SQUARED 0.973, PBLUC_HILL_SLOPE 5.7, PBLUC_R_SQUARED 0.283, read-out: LUCIFERASE INFECTION ASSAY - IC50) was 4.28 µM.

For the molecule `O=c1c(-c2cccc(Cl)c2)c[nH]n1-c1cccc(C(F)(F)F)c1`, the IC90 is more than 9.74 µM. Moreover, the IC50 (HEPG2TOX_HILL_SLOPE 3.35, HEPG2TOX_R_SQUARED 0.846, PBLUC_HILL_SLOPE 3.63, PBLUC_R_SQUARED 0.619, read-out: LUCIFERASE INFECTION ASSAY - IC50) was 5.69 µM.

As to `Cn1ncc2c(N3CCN(CC(=O)Nc4nc(-c5c[nH]c6ccccc56)cs4)CC3)ncnc21`, the IC90 was 4.22 µM. The IC50 (HEPG2TOX_HILL_SLOPE 3.32, HEPG2TOX_R_SQUARED 0.453, PBLUC_HILL_SLOPE 2.65, 8.86, PBLUC_R_SQUARED 0.123, 0.280, read-out: LUCIFERASE INFECTION ASSAY - IC50) was determined as 2.62 µM.

Regarding `CC1Cc2cc(S(N)(=O)=O)ccc2N1CCCOc1ccc(F)cc1` (stereo unspecified), the IC90 is more than 10 µM. Also, under “HEPG2TOX_HILL_SLOPE 3.41, HEPG2TOX_R_SQUARED 0.506, PBLUC_HILL_SLOPE 2.13, PBLUC_R_SQUARED 0.616, read-out: LUCIFERASE INFECTION ASSAY - IC50”, the IC50 came out at 6.18 µM.

`COc1cc(NCc2cc(Cl)cc(Cl)c2OC)ccc1NC(=O)C(C)C`: the IC90 came out at 8.02 µM. Also, where the note is “HEPG2TOX_HILL_SLOPE 3.35, HEPG2TOX_R_SQUARED 0.946, PBLUC_HILL_SLOPE 1.13, PBLUC_R_SQUARED 0.756, read-out: LUCIFERASE INFECTION ASSAY - IC50”, the IC50 was found to be 1.15 µM.

On to `COc1ccccc1-c1cc(-c2ccccc2N(C)C)cnc1N`, for which the IC90 is more than 10.3 µM. The IC50 (HEPG2TOX_HILL_SLOPE 3.39, HEPG2TOX_R_SQUARED 0.524, PBLUC_HILL_SLOPE 1.95, PBLUC_R_SQUARED 0.212, read-out: LUCIFERASE INFECTION ASSAY - IC50) was 5.47 µM.

On to `O=C(NNC(=O)c1cc2cc(Cl)ccc2[nH]1)c1ccc(S(=O)(=O)N2CCCC2)cc1`, for which the IC90 stood at 9.83 µM. In addition, the IC50 (HEPG2TOX_HILL_SLOPE 3.29, HEPG2TOX_R_SQUARED 0.977, PBLUC_HILL_SLOPE 10.3, 16.0, PBLUC_R_SQUARED 0.127, 0.622, read-out: LUCIFERASE INFECTION ASSAY - IC50) turned out to be 8.54 µM.

For the molecule `C1=C(c2ccccc2)CCN(Cc2cccc3cccnc23)C1`, the IC90 is 9.68 µM. The IC50 (HEPG2TOX_HILL_SLOPE 3.29, HEPG2TOX_R_SQUARED 0.953, PBLUC_HILL_SLOPE 4.04, PBLUC_R_SQUARED 0.237, read-out: LUCIFERASE INFECTION ASSAY - IC50) came out at 5.62 µM.

`Nc1ccc(-c2cnc3ccc(NCc4ccc(F)cc4)nn23)cc1`: the IC90 was 0.372 µM. Besides, the IC50 (HEPG2TOX_HILL_SLOPE 3.34, HEPG2TOX_R_SQUARED 0.665, PBLUC_HILL_SLOPE 6.16, PBLUC_R_SQUARED 0.867, read-out: LUCIFERASE INFECTION ASSAY - IC50) is 0.26 µM.

Regarding `COc1ccc(OCCN2CCN(c3ccnc4cc(Cl)ccc34)CC2)cc1`, the IC90 is more than 10 µM. Further, the half-maximal inhibitory concentration (IC50) (HEPG2TOX_HILL_SLOPE 3.33, HEPG2TOX_R_SQUARED 0.981, PBLUC_HILL_SLOPE 2.57, PBLUC_R_SQUARED 0.319, read-out: LUCIFERASE INFECTION ASSAY - IC50) was 5.62 µM.

Consider `O=C(Nc1cc(Cl)ccc1OC(=O)c1ccc(C(F)(F)F)cc1)c1ccc(C(F)(F)F)cc1`, for which the IC90 is 2.9 µM. Moreover, where the note is “HEPG2TOX_HILL_SLOPE 3.38, HEPG2TOX_R_SQUARED 0.98, PBLUC_HILL_SLOPE 2.51, PBLUC_R_SQUARED 0.591, read-out: LUCIFERASE INFECTION ASSAY - IC50”, the IC50 worked out at 1.21 µM.

`COc1c(Cl)cc(C(=O)Nc2nonc2-c2ccc(F)cc2)cc1Cl`: the IC90 stood at 2.81 µM. Moreover, the IC50 (HEPG2TOX_HILL_SLOPE 3.32, HEPG2TOX_R_SQUARED 0.957, PBLUC_HILL_SLOPE 18.3, PBLUC_R_SQUARED 0.283, read-out: LUCIFERASE INFECTION ASSAY - IC50) was found to be 2.49 µM.

Consider `Cc1noc(C)c1CSc1ccccc1C(=O)NNC(=O)c1ccc2ccccc2n1`, for which the IC90 was 6.77 µM. Further, the IC50 (HEPG2TOX_HILL_SLOPE 3.33, HEPG2TOX_R_SQUARED 0.906, PBLUC_HILL_SLOPE 141, PBLUC_R_SQUARED 0.0106, read-out: LUCIFERASE INFECTION ASSAY - IC50) turned out to be 6.66 µM.

`O=C(c1ccc(OCc2cccnc2)cc1)N1CCc2ccccc21`: the IC90 is more than 10 µM. Moreover, under “HEPG2TOX_HILL_SLOPE 3.32, HEPG2TOX_R_SQUARED 0.856, read-out: LUCIFERASE INFECTION ASSAY - IC50”, the IC50 is more than 10 µM.

With `O=C(NCc1cc(Cl)c2c(c1)OCCCO2)c1cnn(Cc2ccccc2)c1`, the IC90 is more than 10 µM. Moreover, the IC50 (HEPG2TOX_HILL_SLOPE 3.36, HEPG2TOX_R_SQUARED 0.962, PBLUC_HILL_SLOPE 1.54, PBLUC_R_SQUARED 0.197, read-out: LUCIFERASE INFECTION ASSAY - IC50) is 9.57 µM.

As to `CC(C)[C@H](Nc1ccc(C(F)(F)F)cc1Cl)C(=O)Nc1ccc(C#N)cc1`, the IC90 came to 3.14 µM. Moreover, under “HEPG2TOX_HILL_SLOPE 3.39, HEPG2TOX_R_SQUARED 0.849, PBLUC_HILL_SLOPE 25.1, 22.4, PBLUC_R_SQUARED 0.626, 0.774, read-out: LUCIFERASE INFECTION ASSAY - IC50”, the IC50 stood at 2.85 µM.

Consider `COc1ccc(-c2ccnc3n[nH]c(-c4ccncc4)c23)cc1`, for which the IC90 was more than 10 µM. Also, the IC50 (HEPG2TOX_HILL_SLOPE 3.34, HEPG2TOX_R_SQUARED 0.878, PBLUC_HILL_SLOPE 1.93, PBLUC_R_SQUARED 0.439, read-out: LUCIFERASE INFECTION ASSAY - IC50) was found to be 3.22 µM.
